The term pEC50 denotes the EC50 on a negative log10 scale, so that one unit is a factor of ten.

pEC50: −log10 of the molar value. Several values for one entry are separate records, joined by “and”; a condition that tells them apart may be missing. Identical values can stand only once.

The experiment concerns the target Human immunodeficiency virus type 1 reverse transcriptase (Human immunodeficiency virus 1, UniProt Q72547). Description: Inhibitory concentration against HIV-1 reverse transcriptase.
Consider `CC(C)c1c(Sc2ccccc2)n(COCc2ccccc2)c(=O)[nH]c1=O`, for which the negative logarithm of the EC50 (pEC50) was 8.57.

`CCCOCn1c(Sc2ccccc2)c(C)c(=O)[nH]c1=O` had a pEC50 of 5.44.

`CCn1c(Sc2ccccc2)c(C)c(=O)[nH]c1=O` showed a pEC50 of 5.66.

In turn, `Cc1cc(C)cc(Cc2c(C(C)C)c(=O)[nH]c(=O)n2COCCO)c1` showed a pEC50 of 8.57.

The compound `CCc1c(Sc2cc(Cl)cc(Cl)c2)n(COCCO)c(=O)[nH]c1=O` gave a pEC50 of 7.85.

As for `CCc1cccc(Sc2c(C)c(=O)[nH]c(=O)n2COCCO)c1`, the pEC50 is 5.57.

The compound `Cc1c(Sc2ccccc2[N+](=O)[O-])n(COCCO)c(=O)[nH]c1=O` gave a pEC50 of 3.85.

For `CCOCn1c(Sc2ccccc2)c(CC)c(=O)[nH]c1=S`, the pEC50 was 7.59.

In turn, `Cc1c(Oc2ccccc2)n(COCCO)c(=O)[nH]c1=O` gave a pEC50 of 5.05.

`CC(C)c1c(Cc2ccccc2)n(COCCO)c(=O)[nH]c1=O`: the pEC50 was 7.20.

Turning to `CCc1c(Cc2ccccc2)n(COCCO)c(=O)[nH]c1=O`, the negative logarithm of the EC50 (pEC50) was 6.46.

The compound `CCc1c(Sc2ccccc2)n(CCCc2ccccc2)c(=O)[nH]c1=O` had a pEC50 of 6.54.

For the compound `CCOCn1c(Cc2ccccc2)c(CC)c(=O)[nH]c1=O`, the pEC50 was 7.39.

Regarding `CC(C)c1c(Sc2ccccc2)n(COCCO)c(=S)[nH]c1=O`, the pEC50 was 7.23.

In turn, `Cc1c(Sc2ccccc2)n(C/C=C/c2ccccc2)c(=O)[nH]c1=O` showed a negative logarithm of the EC50 (pEC50) of 5.60.

The compound `Cc1c(Sc2cccc(Cl)c2)n(COCCO)c(=O)[nH]c1=O` gave a pEC50 of 4.89.

Take `Cc1c(Sc2ccccc2)n(C/C=C/c2cccnc2)c(=O)[nH]c1=O`: the pEC50 was 7.00.

As for `CCOCn1c(Sc2ccccc2)c(C2CC2)c(=O)[nH]c1=O`, the pEC50 was 7.00.

In the case of `COc1cccc(Sc2c(C)c(=O)[nH]c(=O)n2COCCO)c1`, the pEC50 was 4.66.

The compound `CCOCn1c(Cc2ccccc2)c(C(C)C)c(=O)[nH]c1=O` [EMIVIRINE] showed a pEC50 of 8.38.

In turn, `Cc1c(Sc2cccc(F)c2)n(COCCO)c(=O)[nH]c1=O` gave a negative-log EC50 (pEC50) of 5.48.

With `CCOCn1c(Sc2ccccc2)c(C2CC2)c(=O)[nH]c1=S`, the pEC50 is 7.02.

Compound `CCc1c(Sc2ccccc2)n(COCCc2ccccc2)c(=O)[nH]c1=O` had a pEC50 of 7.02.

Regarding `CCCCn1c(Sc2ccccc2)c(C)c(=O)[nH]c1=O`, the negative-log EC50 (pEC50) was 5.92.

On to `CCc1c(Sc2ccccc2)n(C/C=C/c2ccccc2)c(=O)[nH]c1=O`, for which the pEC50 is 6.72.

With `COCn1c(Sc2ccccc2)c(C)c(=O)[nH]c1=O`, the negative logarithm of the EC50 (pEC50) is 5.68.

Turning to `CCOCn1c(Sc2ccccc2)c(CC)c(=O)[nH]c1=O`, the pEC50 was 7.72.

In the case of `CCOCn1c(Sc2cc(C)cc(C)c2)c(CC)c(=O)[nH]c1=O`, the pEC50 was 8.27.

In the case of `CCc1c(Sc2ccccc2)n(COCc2ccccc2)c(=S)[nH]c1=O`, the pEC50 was 8.11.

`CCc1c(Sc2ccccc2)n(CC(C)C)c(=O)[nH]c1=O` had a negative-log EC50 (pEC50) of 6.47.

Turning to `Cc1cccc(Sc2c(C)c(=O)[nH]c(=O)n2COCCO)c1`, the pEC50 was 5.59.

Consider `Cc1cc(C)cc(Sc2c(C)c(=O)[nH]c(=S)n2COCCO)c1`, for which the pEC50 was 6.66.

`CCc1c(Sc2cc(C)cc(C)c2)n(C/C=C/c2cccs2)c(=O)[nH]c1=O` gave a pEC50 of 7.40.

`Cc1c(Sc2ccc(C3CCCCC3)cc2)n(COCCO)c(=O)[nH]c1=O` showed a pEC50 of 5.46.

`CCc1c(Sc2ccccc2)n(C/C=C/c2cccs2)c(=O)[nH]c1=O` showed a negative-log EC50 (pEC50) of 7.10.

Compound `CCOCn1c(Sc2cc(Cl)cc(Cl)c2)c(CC)c(=O)[nH]c1=O` gave a pEC50 of 8.13.

In turn, `CCOCn1c(Sc2ccccc2)c(C)c(=O)[nH]c1=O` gave a pEC50 of 6.48.

Take `CCOCn1c(Sc2cc(Cl)cc(Cl)c2)c(CC)c(=O)[nH]c1=S`: the negative-log EC50 (pEC50) is 7.89.

As for `Cc1ccc(Sc2c(C)c(=O)[nH]c(=O)n2COCCO)cc1`, the negative logarithm of the EC50 (pEC50) was 3.66.

The compound `CC(C)c1c(Sc2ccccc2)n(COCc2ccccc2)c(=S)[nH]c1=O` gave a pEC50 of 8.17.

The compound `CCc1c(Sc2cc(C)cc(C)c2)n(C/C=C/c2ccco2)c(=O)[nH]c1=O` had a negative logarithm of the EC50 (pEC50) of 7.40.

`Cc1c(Sc2cccc(C(C)(C)C)c2)n(COCCO)c(=O)[nH]c1=O` gave a pEC50 of 4.92.

As to `COCCOCn1c(Sc2ccccc2)c(C)c(=O)[nH]c1=O`, the pEC50 is 5.06.

Regarding `CCc1c(Cc2cc(C)cc(C)c2)n(COCCO)c(=O)[nH]c1=O`, the pEC50 is 7.89.

For the compound `CCOCn1c(Cc2cc(C)cc(C)c2)c(CC)c(=O)[nH]c1=O`, the pEC50 is 8.80.

With `CCc1c(Sc2cc(C)cc(C)c2)n(COCCO)c(=S)[nH]c1=O`, the pEC50 is 8.11.

Regarding `COCCn1c(Cc2ccccc2)c(C(C)C)c(=O)[nH]c1=O`, the pEC50 was 7.28.

Compound `CCc1c(Sc2ccccc2)n(COCCc2ccccc2)c(=S)[nH]c1=O` gave a pEC50 of 7.04.

Compound `Cc1ccccc1Sc1c(C)c(=O)[nH]c(=O)n1COCCO` showed a negative-log EC50 (pEC50) of 4.15.

On to `CCc1c(Cc2ccccc2)n(CCOC)c(=O)[nH]c1=O`, for which the pEC50 was 6.60.

Compound `CCc1c(Sc2cc(C)cc(C)c2)n(COCc2ccccc2)c(=S)[nH]c1=O` gave a pEC50 of 8.16.

`CCc1c(Sc2ccccc2)n(COCc2ccc(Cl)cc2)c(=S)[nH]c1=O` had a pEC50 of 7.92.

`Cc1c(Sc2ccccc2)n(COCc2ccccc2)c(=O)[nH]c1=O` gave a pEC50 of 7.06.

In turn, `CCc1c(Sc2ccccc2)n(COC2CCCCC2)c(=O)[nH]c1=O` had a negative logarithm of the EC50 (pEC50) of 5.40.

With `Cc1c(Sc2cccc(C#N)c2)n(COCCO)c(=O)[nH]c1=O`, the pEC50 is 5.00.

In turn, `COc1ccccc1Sc1c(C)c(=O)[nH]c(=O)n1COCCO` had a pEC50 of 4.72.

On to `CCc1c(Sc2ccccc2)n(COCC2CCCCC2)c(=S)[nH]c1=O`, for which the negative-log EC50 (pEC50) was 6.46.

Compound `Cc1c(Sc2cccc([N+](=O)[O-])c2)n(COCCO)c(=O)[nH]c1=O` had a pEC50 of 4.47.

As for `Cc1c(Sc2cccc(I)c2)n(COCCO)c(=O)[nH]c1=O`, the negative logarithm of the EC50 (pEC50) is 5.00.

With `Cc1c(Sc2cccc(C(F)(F)F)c2)n(COCCO)c(=O)[nH]c1=O`, the negative-log EC50 (pEC50) is 4.35.

As to `CCc1c(Sc2ccccc2)n(COCCO)c(=O)[nH]c1=O`, the pEC50 is 6.96 and 6.92.

With `CCOCn1c(Sc2ccccc2)c(C(C)C)c(=O)[nH]c1=S`, the pEC50 was 7.85.

The compound `CCc1c(Sc2ccccc2)n(C/C=C/c2ccco2)c(=O)[nH]c1=O` had a pEC50 of 6.77.

`CCc1c(Sc2cc(Cl)cc(Cl)c2)n(COCCO)c(=S)[nH]c1=O`: the pEC50 was 7.37.

The compound `C=Cc1c(Sc2ccccc2)n(COCCO)c(=O)[nH]c1=O` had a pEC50 of 5.33.

`COC(=O)c1cccc(Sc2c(C)c(=O)[nH]c(=O)n2COCCO)c1`: the negative logarithm of the EC50 (pEC50) is 5.10.

Consider `CCc1c(Sc2cc(C)cc(C)c2)n(COCc2ccccc2)c(=O)[nH]c1=O`, for which the pEC50 was 8.49.

As to `Cc1c(Sc2cccc(Br)c2)n(COCCO)c(=O)[nH]c1=O`, the pEC50 is 5.24.

The compound `CC(=O)c1cccc(Sc2c(C)c(=O)[nH]c(=O)n2COCCO)c1` showed a pEC50 of 5.14.

For `CCc1c(Sc2ccccc2)n(COC2CCCCC2)c(=S)[nH]c1=O`, the pEC50 was 5.80.

In the case of `Cc1c(Cc2ccccc2)n(COCCO)c(=O)[nH]c1=O`, the pEC50 is 5.24.

For the compound `CCc1c(Sc2ccccc2)n(COCc2ccccc2)c(=O)[nH]c1=O`, the pEC50 was 8.23.

Compound `Cc1cc(C)cc(Sc2c(C(C)C)c(=O)[nH]c(=S)n2COCCO)c1` had a pEC50 of 8.30.

In the case of `CCOCn1c(Cc2cc(C)cc(C)c2)c(C(C)C)c(=O)[nH]c1=O`, the negative logarithm of the EC50 (pEC50) is 9.22.

Regarding `CCc1c(Sc2ccccc2)n(COCC2CCCCC2)c(=O)[nH]c1=O`, the pEC50 was 6.35.

As to `CCc1c(Sc2ccccc2)n(CC(C)C)c(=S)[nH]c1=O`, the negative logarithm of the EC50 (pEC50) is 6.66.

As for `CCc1c(Sc2ccccc2)n(COCc2ccc(C)cc2)c(=S)[nH]c1=O`, the pEC50 was 7.11.

Consider `CCOCn1c(Sc2ccccc2)c(C(C)C)c(=O)[nH]c1=O`, for which the pEC50 is 7.92.

As to `CC(C)c1c(Sc2ccccc2)n(COCCO)c(=O)[nH]c1=O`, the negative logarithm of the EC50 (pEC50) was 7.20.

With `Cc1c(Sc2cccc(O)c2)n(COCCO)c(=O)[nH]c1=O`, the pEC50 is 4.09.

Regarding `Cc1c(Sc2cc(Cl)cc(Cl)c2)n(COCCO)c(=O)[nH]c1=O`, the negative-log EC50 (pEC50) was 5.89.

On to `O=c1[nH]c(=O)n(COCCO)c(Sc2ccccc2)c1I`, for which the negative logarithm of the EC50 (pEC50) was 5.37.

In the case of `CCOCn1c(Sc2cc(C)cc(C)c2)c(CC)c(=O)[nH]c1=S`, the pEC50 is 8.36.

The record behind these values is ChEMBL document CHEMBL1130269, “A 3D QSAR study of a series of HEPT analogues: the influence of conformational mobility on HIV-1 reverse transcriptase inhibition” (J Med Chem, 1997).
